This note sets out measurements from patent publication US20230080054A1 (ILDONG PHARMACEUTICAL CO., LTD., priority 2021, published 2023).

Molecules are shown by their SMILES.

Broadly, the inhibition is how much of the control response was suppressed.

This assay concerns the target T1, human ANO6 (Homo sapiens, UniProt Q4KMQ2).
T1 construct: expressed in transfected cells
T1 sequence (Q4KMQ2 1-931 isoform Q4KMQ2-2): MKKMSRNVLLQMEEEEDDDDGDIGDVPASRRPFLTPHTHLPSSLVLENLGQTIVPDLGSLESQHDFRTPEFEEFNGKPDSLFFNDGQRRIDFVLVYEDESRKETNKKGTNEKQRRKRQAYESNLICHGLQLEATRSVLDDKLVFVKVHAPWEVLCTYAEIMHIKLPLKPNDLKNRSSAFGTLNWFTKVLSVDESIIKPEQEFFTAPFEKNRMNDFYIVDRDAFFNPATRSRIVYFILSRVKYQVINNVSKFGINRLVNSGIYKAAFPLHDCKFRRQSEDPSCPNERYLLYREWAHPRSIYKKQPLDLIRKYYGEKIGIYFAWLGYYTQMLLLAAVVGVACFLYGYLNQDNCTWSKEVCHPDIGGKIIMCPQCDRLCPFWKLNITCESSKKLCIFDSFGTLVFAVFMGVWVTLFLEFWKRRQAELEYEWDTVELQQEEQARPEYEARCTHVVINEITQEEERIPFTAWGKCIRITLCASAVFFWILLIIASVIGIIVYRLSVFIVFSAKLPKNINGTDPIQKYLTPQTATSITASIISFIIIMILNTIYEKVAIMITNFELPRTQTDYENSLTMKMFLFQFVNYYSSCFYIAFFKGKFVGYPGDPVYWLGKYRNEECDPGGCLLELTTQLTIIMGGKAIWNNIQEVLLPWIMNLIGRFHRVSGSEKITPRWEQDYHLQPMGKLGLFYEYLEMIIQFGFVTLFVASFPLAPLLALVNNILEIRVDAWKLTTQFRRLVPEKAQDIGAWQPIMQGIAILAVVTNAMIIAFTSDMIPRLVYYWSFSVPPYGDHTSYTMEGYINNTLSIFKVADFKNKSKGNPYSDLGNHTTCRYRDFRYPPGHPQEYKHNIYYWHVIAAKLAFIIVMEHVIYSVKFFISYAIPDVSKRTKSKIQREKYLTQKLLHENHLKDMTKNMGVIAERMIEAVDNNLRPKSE
Kind of assay: YFP quenching assay (ANO6 ion channel activity). Type of assay: cell-based. To be noted: 10 μM ionomycin; for inhibition at 1 µM: test compound 1 μM, read-out: Inhibition Level 1 μM; for inhibition at 30 µM: test compound 30 μM, read-out: Inhibition Level 30 μM. An excerpt: Example 3: YFP Quenching Assay
1. Materials and Instruments
Ionomycin (Alomonelab cat. #I-700), FLUOstar Omega microplate reader (BMG Labtech, Ortenberg, Germany), and MARS Data Analysis Software (BMG Labtech)
Fisher rat thyroid (FRT) cells stably expressing human ANO6 (GenBank accession no. NP_001191732.1, provided by J. H. Nam, Dongguk University College of Medicine, Korea) and halide sensor mutant YFP-H148Q/I152L/F46L) were constructed and grown in Dulbecco's modified Eagle's medium Nutrient Mixture F-12 (DMEM/F-12) supplemented 10% FBS, 100 units/mL penicillin, 500 μg/mL hygromycin B and 100 μg/mL neomycin.
Fisher rat thyroid (FRT) cells stably expressing human ANO6 and halide sensor mutant YFP (H148Q/I152L/F46L) were seeded in black walled 96 well plates and incubated in a 37° C., 5% CO2 incubator to reach about 100% cell confluency. Then, each well of the 96 well plates were washed for several times with phosphate buffered saline (PBS), and 50 μL of PBS was added to each well. Test compounds (100× in DMSO) were added to each well to be 1% v/v DMSO. After incubation for 10 minutes in 40° C., the 96 well plates were transferred to a plate reader, and YFP fluorescence changed by SCN-introduced into cells through activated ANO6 were measured by the following steps.
(1) YFP fluorescence signals were recorded in every 0.4 seconds.
(2) Basal YFP fluorescence signals were recorded for 1 second.
(3) 140 mM SCN-(50 μL) containing 10 μM ionomycin was injected to each well, and YFP fluorescence signals were recorded.
The inhibitory activity (%) of each of the test compounds was obtained by the following steps.
(1) Background signals were subtracted from recording values, and the resulting values were converted to relative percentages. The values at 0 second were set to be 100%.
(2) Differences between the values at 3.6 seconds and those of at 7.6 seconds were calculated.
(3) In each row of 96 well plate, the inhibitory activity of each of the test compounds was calculated as percentages. The inhibitory activity of a negative control group to which neither compounds nor ionomycin were treated was set to be 100%, and the inhibitory activity of a positive control group to which ionomycin was treated and compounds were not treated was set to be 0%.
(4) The assay was performed in duplicate or triplicate, and the results were averaged.

Regarding `Cc1ccc(CNC(=O)c2cccc(Nc3ncc(-c4cccc(C(=O)O)c4)cn3)c2)o1` [Compound 108, 3-{2-[(3-{[(5-methylfuran-2-yl)methyl]carbamoyl}phenyl)amino]pyrimidin-5-yl}benzoic acid], the inhibition at 1 µM was < 30%.
Turning to `CCNC(=O)c1cccc(Nc2ccc(-c3ccccc3)nn2)c1` [Compound 37, N-ethyl-3-[(6-phenylpyridazin-3-yl)amino]benzamide], the inhibition at 1 µM was in the range of 30 to 60% and the inhibition at 30 µM is ≥ 60%.
`Cc1ccc(CNC(=O)c2cccc(Nc3ccc(C4CCOCC4)nn3)c2)o1` [Compound 49, N-[(5-methylfuran-2-yl)methyl]-3-{[6-(oxan-4-yl)pyridazin-3-yl]amino}benzamide]: the inhibition at 1 µM is < 30%.
Take `Cc1ccc(CNC(=O)c2cccc(Nc3ccc(-c4ccco4)nn3)c2)o1` [Compound 8, 3-{[6-(furan-2-yl)pyridazin-3-yl]amino}-N-[(5-methylfuran-2-yl)methyl]benzamide]: the inhibition at 1 µM is 30 to 60% and the inhibition at 30 µM was ≥ 60%.
With `O=C(NCCCN1CCCC1)c1cccc(Nc2ccc(-c3ccccc3)nn2)c1` [Compound 21, 3-[(6-phenylpyridazin-3-yl)amino]-N-[3-(pyrrolidin-1-yl)propyl]benzamide], the inhibition at 1 µM is < 30% and the inhibition at 30 µM is < 30%.
In the case of `Cc1ccc(CNC(=O)c2cccc(Nc3ccc(C4CCCC4)nn3)c2)o1` [Compound 62, 3-[(6-cyclopentylpyridazin-3-yl)amino]-N-[(5-methylfuran-2-yl)methyl]benzamide], the inhibition at 1 µM was < 30%.
For the compound `O=C(NC1CCOCC1)c1cccc(Nc2ccc(-c3ccccc3)nn2)c1` [Compound 28, N-(oxan-4-yl)-3-[(6-phenylpyridazin-3-yl)amino]benzamide], the inhibition at 1 µM was < 30% and the inhibition at 30 µM was ≥ 60%.
For `Cc1ccc(-c2ccc(Nc3cccc(C(=O)NCC(C)C)c3)nn2)cc1` [Compound A33] the same measures were 30 to 60% and ≥ 60%.
On to `Cc1ccc(CNC(=O)c2cccc(Nc3ncc(-c4ccc(F)cc4)cn3)c2)o1` [Compound A19], for which the inhibition at 30 µM was 30 to 60%.
As to `Cc1ccc(CNC(=O)c2cccc(Nc3ccc(C#N)nn3)c2)o1` [Compound 107, 3-[(6-cyanopyridazin-3-yl)amino]-N-[(5-methylfuran-2-yl)methyl]benzamide], the inhibition at 1 µM was < 30%.
On the same count and under the same terms, then `Cc1ccc(CNC(=O)c2cccc(Nc3cccc(-c4ccccc4)c3)c2)o1` [Compound 88, 3-({[1,1′-biphenyl]-3-yl}amino)-N-[(5-methylfuran-2-yl)methyl]benzamide], with < 30%.
`O=C(NC1COC1)c1cccc(Nc2ccc(-c3ccccc3)nn2)c1` [Compound 26, N-(oxetan-3-yl)-3-[(6-phenylpyridazin-3-yl)amino]benzamide]: the inhibition at 1 µM was in the range of 30 to 60% and the inhibition at 30 µM was ≥ 60%.
As to `O=C(NCCN1CCCC1)c1cccc(Nc2ncc(-c3ccccc3)cn2)c1` [Compound 94, 3-[(5-phenylpyrimidin-2-yl)amino]-N-[2-(pyrrolidin-1-yl)ethyl]benzamide], the inhibition at 1 µM was < 30%.
With `O=C(NC1CCCc2ccccc21)c1cccc(Nc2ncc(-c3cccc(F)c3)cn2)c1` (centres unmarked) [Compound A82], the inhibition at 1 µM lay in the range of 30 to 60%.
With `Cc1ccc(CNC(=O)c2ccc(Nc3ccc(-c4ccccc4)nn3)cc2)o1` [Compound 22, N-[(5-methylfuran-2-yl)methyl]-4-[(6-phenylpyridazin-3-yl)amino]benzamide], the inhibition at 30 µM was < 30%.
Turning to `O=C(NCCc1ccncc1)c1cccc(Nc2ccc(-c3ccccc3)nn2)c1` [Compound 27, 3-[(6-phenylpyridazin-3-yl)amino]-N-[2-(pyridin-4-yl)ethyl]benzamide], the inhibition at 1 µM fell in the range of 30 to 60% and the inhibition at 30 µM is ≥ 60%.
Consider `Cc1ccc(CNC(=O)c2cccc(Nc3ccc(C4CC4)nn3)c2)o1` [Compound 43, 3-[(6-cyclopropylpyridazin-3-yl)amino]-N-[(5-methylfuran-2-yl)methyl]benzamide], for which the inhibition at 1 µM is < 30%.
Regarding `Cc1cnnc(Nc2cccc(C(=O)NCc3ccc(C)o3)c2)c1` [Compound 42, N-[(5-methylfuran-2-yl)methyl]-3-[(5-methylpyridazin-3-yl)amino]benzamide], the inhibition at 30 µM is < 30%.
For the compound `O=C(NCC1CCOCC1)c1cccc(Nc2ccc(-c3ccccc3)nn2)c1` [Compound 34, N-[(oxan-4-yl)methyl]-3-[(6-phenylpyridazin-3-yl)amino]benzamide], the inhibition at 1 µM was < 30% and the inhibition at 30 µM was ≥ 60%.
Take `O=C(NCCN1CCCCC1)c1cccc(Nc2ncc(-c3ccccc3)cn2)c1` [Compound 93, 3-[(5-phenylpyrimidin-2-yl)amino]-N-[2-(piperidin-1-yl)ethyl]benzamide]: the inhibition at 1 µM was < 30%.
With `O=C(NCc1ccc2c(c1)OCO2)c1cccc(Nc2ccc(-c3ccc(F)cc3)nn2)c1` [Compound A17], the inhibition at 1 µM lay in the range of 30 to 60% and the inhibition at 30 µM was ≥ 60%.
In the case of `Cc1ccc(CNC(=O)c2cccc(Nc3ccc(-c4c(C)noc4C)nn3)c2)o1` [Compound 72, 3-{[6-(3,5-dimethyl-1,2-oxazol-4-yl)pyridazin-3-yl]amino}-N-[(5-methylfuran-2-yl)methyl]benzamide], the inhibition at 1 µM is < 30%.
Turning to `COc1ccccc1NC(=O)c1cccc(Nc2ccc(-c3ccccc3)nn2)c1` [Compound A71], the inhibition at 30 µM fell in the range of 30 to 60%.
As to `Cc1ccc(-c2ccc(Nc3cccc(C(=O)NCc4ccc(F)cc4)c3)nn2)cc1` [Compound A23], the inhibition at 30 µM lay in the range of 30 to 60%.
With `Cc1cccc(-c2cnc(Nc3cccc(C(=O)NCc4ccc(C)o4)c3)nc2)c1` [Compound A18], the inhibition at 1 µM lay within 30 to 60% and the inhibition at 30 µM was 30 to 60%.
With `Cc1ccc(CNC(=O)c2cccc(Nc3ccc(C4CCOC4)nn3)c2)o1` (centres unmarked) [Compound 87, N-[(5-methylfuran-2-yl)methyl]-3-{[6-(oxolan-3-yl)pyridazin-3-yl]amino}benzamide], the inhibition at 1 µM is < 30%.
As for `O=C(NCCN1CCCCC1)c1cccc(Nc2ccc(-c3ccccc3)nn2)c1` [Compound A90], the inhibition at 1 µM was < 30%.
For `CCN(CCCNC(=O)c1cccc(Nc2ccc(-c3ccccc3)nn2)c1)Cc1ccccc1` [Compound A42], the inhibition at 1 µM was 30 to 60% and the inhibition at 30 µM was ≥ 60%.
As to `Cc1ccc(-c2ccc(Nc3cccc(C(=O)NC(C)C)c3)nn2)cc1` [Compound A31], the inhibition at 1 µM fell in the range of 30 to 60% and the inhibition at 30 µM was ≥ 60%.
As for `O=C(NCc1ccncc1)c1cccc(Nc2ccc(-c3ccccc3)nn2)c1` [Compound 18, 3-[(6-phenylpyridazin-3-yl)amino]-N-[(pyridin-4-yl)methyl]benzamide], the inhibition at 1 µM is < 30% and the inhibition at 30 µM lay within 30 to 60%.
As for `Cc1ccc(CNC(=O)c2cccc(Nc3ccc(CCc4ccccc4)nn3)c2)o1` [Compound 76, N-[(5-methylfuran-2-yl)methyl]-3-{[6-(2-phenylethyl)pyridazin-3-yl]amino}benzamide], the inhibition at 1 µM was < 30%.
